Reference: PMC5518096, “Use of a special Brazilian red-light emitting railroad worm Luciferase in bioassays of NEK7 protein Kinase and Creatine Kinase” (BMC Biochemistry, 2017)

How the values were obtained:
Experiment in all cases: ATP consumption, coupled red luciferase luminescence
Type in all cases: biochemical
[1] = molecular target: T1, uMtCK (6xHis-ubiquitous creatine kinase, pUS04) (Homo sapiens, UniProt P12532); conditions: 5 mM creatine, 50 uM ATP, 4 mM MgSO4, pH 8, 37 °C, 30 min
T1 construct: gene CKMT1A; 6xHis, pET3b plasmid pUS04 (Schlattner), E. coli BL21(DE3)

[2] = molecular target: T2, sMtCK (6xHis-sarcomeric creatine kinase, pUS01) (Homo sapiens, UniProt P17540); conditions: 5 mM creatine, 50 uM ATP, 4 mM MgSO4, pH 8, 37 °C, 30 min
T2 construct: gene CKMT2; 6xHis, pET3b plasmid pUS01 (Schlattner), E. coli BL21(DE3)

NEK7 (6xHis-NEK7) = NEK7 (6xHis-NEK7) (Homo sapiens, UniProt Q8TDX7); conditions: 1 uM ATP, protein substrates NEK9(764-976), MAT1 or CC2D1A(501-940), 4 mM MgSO4, pH 8, 37 °C
Chain of NEK7 (6xHis-NEK7) (Q8TDX7 whole entry): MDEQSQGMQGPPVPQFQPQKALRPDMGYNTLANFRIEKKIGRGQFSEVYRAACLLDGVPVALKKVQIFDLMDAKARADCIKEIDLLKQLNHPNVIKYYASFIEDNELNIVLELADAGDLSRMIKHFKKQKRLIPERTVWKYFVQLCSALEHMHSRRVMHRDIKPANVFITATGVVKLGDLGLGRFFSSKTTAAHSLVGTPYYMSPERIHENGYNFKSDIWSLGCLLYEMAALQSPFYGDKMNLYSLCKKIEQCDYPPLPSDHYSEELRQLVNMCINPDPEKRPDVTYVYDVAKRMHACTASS

Compound | ATP consumption, coupled red luciferase luminescence [1] | ATP consumption, coupled red luciferase luminescence [2] | ATP consumption, coupled red luciferase luminescence (NEK7 (6xHis-NEK7))
Nc1ncnc2c1ncn2[C@@H]1O[C@H](COP(=O)(O)OP(=O)(O)OP(=O)(O)O)[C@@H](O)[C@H]1O [ATP] | ATP was consumed only in the presence of creatine kinase and creatine | ATP was consumed only in the presence of creatine kinase and creatine | ATP consumption by NEK7, due to its phosphorylation of substrate proteins/domains
CN(CC(=O)O)C(=N)N [creatine] | – | when creatine was added, the light emission was significantly decreased | –
